Laboratory results as given in patent publication US20230093861A1, “RAPAMYCIN ANALOGS AS MTOR INHIBITORS” (Revolution Medicines, Inc., priority 2017, published 2023).
Where two headings read alike, the source gives them in different places.

Columns and labels:
P-4E-BP1 (T37/46) = assay: Cell based AlphaLISA assay, inhibition of P-4E-BP1 (T37/46) (mTORC1 substrate phosphorylation) in MDA-MB-468 cells; conditions: Homo sapiens, AlphaLISA, two to four hours at 37° C., read-out: pIC50 for Inhibition of mTORC1 and mTORC2 Substrate Phosphorylation, P-4E-BP1-(T37/46) (converted)
Method in brief: (§1)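 Readout is the Alpha signal for each phosphoprotein, measured in duplicate from cell lysates with a SureFire Ultra homogeneous assay. IC50 values derive from inhibitor concentration-response curves fitted by normalized regression against controls.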

P-Akt (S473) = assay: Cell based AlphaLISA assay, inhibition of P-Akt (S473) (mTORC2 substrate phosphorylation) in MDA-MB-468 cells; conditions: Homo sapiens, AlphaLISA, two to four hours at 37° C., read-out: pIC50 for Inhibition of mTORC1 and mTORC2 Substrate Phosphorylation, p-AKT 1/2/3 -(S473) (converted)
Method in brief: as §1

P-P70S6K (T389) = assay: Cell based AlphaLISA assay, inhibition of P-P70S6K (T389) (mTORC1 substrate phosphorylation) in MDA-MB-468 cells; conditions: Homo sapiens, 4 h, AlphaLISA, two to four hours at 37° C., read-out: pIC50 for Inhibition of mTORC1 and mTORC2 Substrate Phosphorylation, P-P70S6K-(T389) (converted)
Method in brief: as §1

SMILES | IC50 (P-4E-BP1 (T37/46); 4 h) [nM] | IC50 (P-Akt (S473); 4 h) [nM] | IC50 (P-P70S6K (T389)) [nM] | IC50 (P-4E-BP1 (T37/46); MDA-MB-468, 4 h) [nM] | IC50 (P-Akt (S473); MDA-MB-468, 4 h) [nM]
COc1ccc(-c2ccc3ncc4c(c3c2)n(-c2ccc(N3CCN(C(=O)CCOCCOCCOCCOCCOCCOCCn5cc(CCCCO[C@@H]6CC[C@@H](C[C@@H](C)[C@@H]7CC(=O)[C@H](C)/C=C(\C)[C@@H](O)[C@@H](OC)C(=O)[C@H](C)C[C@H](C)/C=C/C=C/C=C(\C)[C@@H](OC)C[C@@H]8CC[C@@H](C)[C@@](O)(O8)C(=O)C(=O)N8CCCC[C@H]8C(=O)O7)C[C@H]6OC)nn5)CC3)c(C(F)(F)F)c2)c(=O)n4C)cn1 [Example 44] | < 3.16 | < 3.16 | < 1 |  | 
CO[C@H]1C[C@@H]2CC[C@@H](C)[C@@](O)(O2)C(=O)C(=O)N2CCCC[C@H]2C(=O)O[C@H]([C@H](C)C[C@@H]2CC[C@@H](OCc3cccc(-c4cnc(N5CCN(S(=O)(=O)CCc6cn(CCOCCOCCC(=O)NCCCCn7nc(-c8ccc9oc(N)nc9c8)c8c(N)ncnc87)nn6)CC5)nc4)c3)[C@H](OC)C2)CC(=O)[C@H](C)/C=C(\C)[C@@H](O)[C@@H](OC)C(=O)[C@H](C)C[C@H](C)/C=C/C=C/C=C/1C [Example 28] |  |  | < 1 | < 3.16 | 3.16 to 31.6
COc1cccc2cc(-c3nc([C@H]4CC[C@H](C(=O)NCCOCCOCCNC(=O)CCOCCOCCOCCOCCn5cc(CCCCO[C@@H]6CC[C@@H](C[C@@H](C)[C@@H]7CC(=O)[C@H](C)/C=C(\C)[C@@H](O)[C@@H](OC)C(=O)[C@H](C)C[C@H](C)/C=C/C=C/C=C(\C)[C@@H](OC)C[C@@H]8CC[C@@H](C)[C@@](O)(O8)C(=O)C(=O)N8CCCC[C@H]8C(=O)O7)C[C@H]6OC)nn5)CC4)n4ncnc(N)c34)[nH]c12 [Example 187] |  |  | < 1 | < 3.16 | 3.16 to 31.6
CO[C@H]1C[C@@H]2CC[C@@H](C)[C@@](O)(O2)C(=O)C(=O)N2CCCC[C@H]2C(=O)O[C@H]([C@H](C)C[C@@H]2CC[C@H](n3cc(COC(=O)NCCOCCOCCC(=O)NCc4cnc(N5CCN(c6ncc(C(=O)NCCCCn7nc(-c8ccc9oc(N)nc9c8)c8c(N)ncnc87)cn6)CC5)nc4)nn3)[C@H](OC)C2)CC(=O)[C@H](C)/C=C(\C)[C@@H](O)[C@@H](OC)C(=O)[C@H](C)C[C@H](C)/C=C/C=C/C=C/1C [Example 181] |  |  | < 1 | < 3.16 | 3.16 to 31.6
CO[C@H]1C[C@@H]2CC[C@@H](C)[C@@](O)(O2)C(=O)C(=O)N2CCCC[C@H]2C(=O)O[C@H]([C@H](C)C[C@@H]2CC[C@@H](O)[C@H](OC)C2)C[C@@H](OC)[C@H](C)/C=C(\C)[C@@H](O)[C@@H](OC)/C(=N/OCc2cn(CCOCCOCCOCCOCCOCCOCCC(=O)NCCCCn3nc(-c4ccc5oc(N)nc5c4)c4c(N)ncnc43)nn2)[C@H](C)C[C@H](C)/C=C/C=C/C=C/1C [Example 14] |  |  | 1 to 10 | 3.16 to 31.6 | 31.6 to 1000
CO[C@H]1C[C@@H]2CC[C@@H](C)[C@@](O)(O2)C(=O)C(=O)N2CCCC[C@H]2C(=O)O[C@H]([C@H](C)C[C@@H]2CC[C@@H](OCCCCc3cn(CCOCCOCCOCCOCCOCCOCCC(=O)NCc4ccc(Cn5nc(-c6ccc7oc(N)nc7c6)c6c(N)ncnc65)cc4)nn3)[C@H](OC)C2)CC(=O)[C@H](C)/C=C(\C)[C@@H](O)[C@@H](OC)C(=O)[C@H](C)C[C@H](C)/C=C/C=C/C=C/1C [Example 86] |  |  | < 1 | < 3.16 | 3.16 to 31.6
CO[C@H]1C[C@@H]2CC[C@@H](C)[C@@](O)(O2)C(=O)C(=O)N2CCCC[C@H]2C(=O)O[C@H]([C@H](C)C[C@@H]2CC[C@@H](OCCCCc3cn(CCOCCOCCOCCOCCOCCOCCC(=O)NCCCCn4nc(-c5ccc6oc(N)nc6c5)c5c(N)ncnc54)nn3)[C@H](OC)C2)CC(=O)[C@H](C)/C=C(\C)[C@@H](O)[C@@H](OC)C(=O)[C@H](C)C[C@H](C)/C=C/C=C/C=C/1C [Example 3] | < 3.16 | 3.16 to 31.6 | < 1 |  | 
CO[C@H]1C[C@@H]2CC[C@@H](C)[C@@](O)(O2)C(=O)C(=O)N2CCCC[C@H]2C(=O)O[C@H]([C@H](C)C[C@@H]2CC[C@H](n3cc(CCCC(=O)NCCOCCOCCOCCC(=O)NCCOCCOCCOCCC(=O)NCCCCn4nc(-c5cc6cc(O)ccc6[nH]5)c5c(N)ncnc54)nn3)[C@H](OC)C2)C[C@@H](OC)[C@H](C)/C=C(\C)[C@@H](O)[C@@H](OC)C(=O)[C@H](C)C[C@H](C)/C=C/C=C/C=C/1C [Example 179] |  |  | 1 to 10 | 31.6 to 1000 | > 1000
CO[C@H]1C[C@@H]2CC[C@@H](C)[C@@](O)(O2)C(=O)C(=O)N2CCCC[C@H]2C(=O)O[C@H]([C@H](C)C[C@@H]2CC[C@@H](OCCCCc3cn(CCOCCOCCOCCOCCOCCOCCOCCOCCC(=O)N4CCC(Cn5nc(-c6ccc7oc(N)nc7c6)c6c(N)ncnc65)C4)nn3)[C@H](OC)C2)CC(=O)[C@H](C)/C=C(\C)[C@@H](O)[C@@H](OC)C(=O)[C@H](C)C[C@H](C)/C=C/C=C/C=C/1C (stereo partly drawn) [Example 7] |  |  | < 1 | < 3.16 | < 3.16
CO[C@H]1C[C@@H]2CC[C@@H](C)[C@@](O)(O2)C(=O)C(=O)N2CCCC[C@H]2C(=O)O[C@H]([C@H](C)C[C@@H]2CC[C@@H](OCCCCc3cn(CCOCCOCCOCCOCCOCCOCCOCCOCCC(=O)NCCCCn4ncc5c(N)ncnc54)nn3)[C@H](OC)C2)CC(=O)[C@H](C)/C=C(\C)[C@@H](O)[C@@H](OC)C(=O)[C@H](C)C[C@H](C)/C=C/C=C/C=C/1C [Example 5] |  |  | < 1 | 31.6 to 1000 | > 1000
CO[C@H]1C[C@@H]2CC[C@@H](C)[C@@](O)(O2)C(=O)C(=O)N2CCCC[C@H]2C(=O)O[C@H]([C@H](C)C[C@@H]2CC[C@@H](O)[C@H](OC)C2)C[C@@H](OC)[C@H](C)/C=C(\C)[C@@H](O)[C@@H](OC)/C(=N\OCc2cn(CCOCCOCCOCCOCCOCCOCCC(=O)NCCCCn3nc(-c4ccc5oc(N)nc5c4)c4c(N)ncnc43)nn2)[C@H](C)C[C@H](C)/C=C/C=C/C=C/1C [Example 15] |  |  | 1 to 10 | 3.16 to 31.6 | 31.6 to 1000
